Where “and” joins values, the source holds several entries; their conditions need not be identical. Equal values may be shown once.
Columns and labels:
[1] = test system: gastrocnemius muscle; test: Targeted analysis of ceramide, SM and HexCer in gastrocnemius muscle; assay type: in vivo, mice; parameters: HexCer 18:1/22:0 content of gastrocnemius muscle / SM 34:1 content of gastrocnemius muscle / SM 34:2 content of gastrocnemius muscle / SM 36:2 content of gastrocnemius muscle / SM 36:1 content of gastrocnemius muscle / SM 40:1 content of gastrocnemius muscle / SM 42:2 content of gastrocnemius muscle / SM 42:1 content of gastrocnemius muscle / Cer 18:1/16:0 content of gastrocnemius muscle / Cer 18:1/18:0 content of gastrocnemius muscle / Cer 18:2/18:0 content of gastrocnemius muscle / Cer 18:0/18:0 content of gastrocnemius muscle / Cer 18:1/22:0 content of gastrocnemius muscle / Cer 18:1/24:1 content of gastrocnemius muscle / Cer 18:0/24:1 content of gastrocnemius muscle / Cer 18:1/24:0 content of gastrocnemius muscle / HexCer 18:1/16:0 content of gastrocnemius muscle / HexCer 18:1/18:0 content of gastrocnemius muscle / HexCer 18:1/20:0 content of gastrocnemius muscle: unit not given beside the values; details: HFD + P053, individual mice
[2] = test system: C57BL6/J mice; test: Food intake; details: mouse, in vivo
[3] = test system: SkM; test: Western blotting of SkM (respiratory complex subunits, PGC-1α, AMPK, ACC); assay type: in vivo, mice
Procedure: Tissues were homogenized in RIPA buffer (100 mM NaCl, 10 mM Tris, pH 7.4, 1% Triton X-100, 0.5% sodium deoxycholate, 0.1% SDS, 1 mM EDTA, 10% Glycerol) containing complete protease inhibitor cocktail (Roche) and phosphatase inhibitors (3 mM β-glycerophosphate, 1 mM sodium orthovanadate, 5 mM sodium fluoride) by bead-beating in a Precellys 24 at 4 °C. Extracts were centrifuged at 6500 rpm for 10 min at 4 °C. Supernatant was collected and protein concentrations determined with the Bicinchoninic acid (BCA) assay (Thermo Scientific). Protein lysates (15 μg) were resolved on SDS-PAGE, transferred to polyvinylidene difluoride (PVDF) membrane, and immunoblotted with antibodies against Complex I subunit NADH dehydrogenase (#ab110242, Abcam), Complex II succinate dehydrogenase subunit B (#ab14714, Abcam), Complex III subunit Core 2 Ubiquinol-cytochrome c reductase (#ab14745, Abcam), Complex IV Cytochrome c oxidase (#11967S, Cell Signaling Technology), Complex V ATP synthase α subunit (#ab14748, Abcam), PGC1α (#AB3242, Merck Millipore), AMPKα (#2532S, Cell Signaling Technology), phospho- AMPKα (Thr172) (#2535S, Cell Signaling Technology), ACC (#3662S, Cell Signaling Technology), phospho-ACC (Ser 79, which also detects Ser 212 in ACC2, the predominant ACC isoform in SkM) (#3661S, Cell Signaling Technology) and pan 14-3-3 (#sc-629, Santa Cruz Biotechnology). All antibodies were used at a dilution of 1:1000. A common loading control was included on every gel to account for variation in relative band intensities between different blots. Antibody-antigen binding was detected using ECL Reagent (GE Healthcare) and imaged on a Fujifilm Las-4000 CCD camera. Bands were quantified by densitometry with Fuji ImageQuantTL software. Full images of blots in Fig. 6 are shown in Supplementary Figure 12.
Western blots for phospho-AMPK (Thr172), total AMPK, phospho-ACC (Ser79), and total
ACC in vehicle- or P053-treated mice on a chow or HFD. Denistometry for phospho-
AMPK/total AMPK and phospho-ACC/total ACC is shown (n = 10 mice per group).
(1 picture or pasted object on this page, not shown here)

**Q.** Which “Cer 18:0/18:0 content of gastrocnemius muscle” value [1] does the source give for `C[C@@](N)(CO)CCc1ccc(OCc2ccc(Cl)c(Cl)c2)cc1` [P053, (S)-2-amino-4-(4-(3,4-dichlorobenzyloxy)phenyl)-2-methylbutan-1-ol] here?
**A.** The value was 6.696 (2×) and 6.991 and 7.614 and 9.306 and 10.4442 and 6.363 and 5.154 and 5.258 and 4.509.

**Q.** What about the “Cer 18:0/24:1 content of gastrocnemius muscle” value [1] of the same molecule?
**A.** Its value is 4.519 and 1.914 and 1.715 and 1.673 and 2.381 and 12.1481 and 1.438 and 1.998 and 3.6 and 0.9202.

**Q.** What about the “Cer 18:1/16:0 content of gastrocnemius muscle” value [1] of the same molecule?
**A.** The value was 0.2953 and 0.2425 and 0.247 and 0.3667 and 0.6053 and 1.286 and 0.3154 and 0.1867 and 0.2439 and 0.2642.

**Q.** And the “Cer 18:1/18:0 content of gastrocnemius muscle” value [1]?
**A.** The value was 21.9657 and 17.6562 and 21.0561 and 17.8475 and 19.1897 and 17.6974 and 13.2972 and 14.5082 and 22.6242 and 9.617.

**Q.** What about the “Cer 18:1/20:0 content of gastrocnemius muscle” value [1] of the same molecule?
**A.** The value was 1.3 and 0.9773 and 1.039 and 0.7088 and 1.3618 and 1.151 and 0.5199 and 0.8084 and 1.045 and 0.6734.

**Q.** What about the “Cer 18:1/22:0 content of gastrocnemius muscle” value [1] of the same molecule?
**A.** The value was 6.663 and 2.886 and 2.627 and 3.138 and 3.9433 and 5.15 and 2.442 and 3.877 and 4.12 and 2.291.

**Q.** What about the “Cer 18:1/24:0 content of gastrocnemius muscle” value [1] of the same molecule?
**A.** Its value is 8.75 and 4.723 and 4.013 and 4.317 and 4.82 and 10.8999 and 3.077 and 4.318 and 7.266 and 2.309.

**Q.** And the “Cer 18:1/24:1 content of gastrocnemius muscle” value [1]?
**A.** The value was 11.3105 and 7.675 and 5.851 and 7.272 and 9.129 and 11.5338 and 5.462 and 9.029 and 11.0555 and 5.753.

**Q.** What about the “Cer 18:2/18:0 content of gastrocnemius muscle” value [1] of the same molecule?
**A.** Its value is 0.4484 and 0.4926 and 0.3634 and 0.4132 and 0.2765 and 0.3608 and 0.2849 and 0.2673 and 0.3042 and 0.2757.

**Q.** And the “HexCer 18:1/16:0 content of gastrocnemius muscle” value [1]?
**A.** The value was 0.07083 and 0.2298 and 0.1257 and 0.1094 and 0.2809 and 0.09552 and 0.04859 and 0.09042 and 0.2927 and 0.128.

**Q.** What about the “HexCer 18:1/18:0 content of gastrocnemius muscle” value [1] of the same molecule?
**A.** Its value is 0.6278 and 2.316 and 1.725 and 1.053 and 1.514 and 0.3784 and 1.339 and 1.2334 and 3.411 and 0.7622.

**Q.** What about the “HexCer 18:1/20:0 content of gastrocnemius muscle” value [1] of the same molecule?
**A.** Its value is 1.025 and 3.657 and 4.193 and 2.559 and 2.728 and 0.775 and 2.303 and 1.6216 and 6.493 and 1.535.

**Q.** What about the “HexCer 18:1/22:0 content of gastrocnemius muscle” value [1] of the same molecule?
**A.** Its value is 7.522 and 16.4106 and 20.0443 and 14.4231 and 12.9484 and 5.248 and 12.5609 and 13.236 and 35.9679 and 8.484.

**Q.** What about the “HexCer 18:1/22:1 content of gastrocnemius muscle” value [1] of the same molecule?
**A.** Its value is 0.5466 and 1.486 and 1.3 and 1.291 and 1.104 and 0.193 and 0.8615 and 0.6275 and 2.662 and 0.7906.

**Q.** And the “HexCer 18:1/24:0 content of gastrocnemius muscle” value [1]?
**A.** Its value is 35.0734 and 65.2406 and 70.8422 and 52.1762 and 47.7217 and 19.7676 and 40.4927 and 43.8786 and 131.229 and 26.1187.

**Q.** What about the “HexCer 18:1/24:1 content of gastrocnemius muscle” value [1] of the same molecule?
**A.** Its value is 11.8966 and 34.458 and 33.6892 and 26.2534 and 24.7881 and 7.796 and 20.5958 and 23.2933 and 61.9739 and 13.7499.

**Q.** And the “SM 34:1 content of gastrocnemius muscle” value [1]?
**A.** Its value is 32.5351 and 75.4148 and 64.2595 and 68.4699 and 74.2315 and 69.3058 and 56.8022 and 63.1231 and 40.9981 and 91.0819.

**Q.** What about the “SM 34:2 content of gastrocnemius muscle” value [1] of the same molecule?
**A.** Its value is 1.53 and 2.835 and 1.998 and 2 and 2.418 and 2.144 and 2.133 and 2.338 and 2.209 and 2.34.

**Q.** And the “SM 36:1 content of gastrocnemius muscle” value [1]?
**A.** The value was 125.344 and 223.512 and 246.64 and 236.8 and 200.399 and 135.056 and 273.936 and 199.397 and 141.624 and 291.891.

**Q.** And the “SM 36:2 content of gastrocnemius muscle” value [1]?
**A.** Its value is 1.77 and 3.547 and 2.905 and 2.734 and 5.421 and 3.741 and 3.767 and 2.494 and 1.973 and 4.895.

**Q.** And the “SM 40:1 content of gastrocnemius muscle” value [1]?
**A.** The value was 74.9293 and 89.7182 and 104.131 and 44.9676 and 58.8143 and 74.268 and 90.7758 and 60.0553 and 174.22 and 68.0463.

**Q.** And the “SM 42:1 content of gastrocnemius muscle” value [1]?
**A.** Its value is 42.7745 and 43.392 and 45.2063 and 34.368 and 60.6982 and 34.7124 and 28.1104 and 34.3376 and 109.833 and 16.1089.

**Q.** What about the “SM 42:2 content of gastrocnemius muscle” value [1] of the same molecule?
**A.** Its value is 124.791 and 220.201 and 175.989 and 144.772 and 171.488 and 135.796 and 111.009 and 132.926 and 406.752 and 102.287.

**Q.** What about the food intake [2] of the same molecule?
**A.** Its food intake is “not due to any effect of P053 on food intake”.

**Q.** And the “phosphorylation of AMPK or acetyl-CoA carboxylase (ACC)” value [3]?
**A.** Its value is “no effect”.

**Q.** What about the “protein expression of Pgc-1α” value [3] of the same molecule?
**A.** Its value is “significantly increased”.

**Q.** What about the “respiratory complexes at the protein level” value [3] of the same molecule?
**A.** Its value is “up-regulated”.

From article PMC6104039 (Nature Communications, 2018)
